According to US20240174727A1, “LONG-ACTING NATRIURETIC PEPTIDES AND USES THEREOF” (Eli Lilly and Company, priority 2022, published 2024):

Tested on: plasma cGMP
Experiment: In vivo monkey studies, plasma cGMP ELISA
Set-up: species or system male cynomolgus monkeys
Conditions: for Net cGMP (nM) Change from Baseline 0.083 h / Net cGMP (nM) Change from Baseline 0.25 h / Net cGMP (nM) Change from Baseline 0.5 h / Net cGMP (nM) Change from Baseline 1 h / Net cGMP (nM) Change from Baseline 2 h / Net cGMP (nM) Change from Baseline 4 h / Net cGMP (nM) Change from Baseline 8 h / Net cGMP (nM) Change from Baseline 12 h / Net cGMP (nM) Change from Baseline 24 h / Net cGMP (nM) Change from Baseline 36 h / Net cGMP (nM) Change from Baseline 48 h / Net cGMP (nM) Change from Baseline 72 h / Net cGMP (nM) Change from Baseline 96 h / Net cGMP (nM) Change from Baseline 120 h / Net cGMP (nM) Change from Baseline 144 h / Net cGMP (nM) Change from Baseline 168 h: dose 100 nmol/kg, monkey plasma; for Net cGMP (nM) Change from Baseline 0.083 h: 0.083 h postdose; for Net cGMP (nM) Change from Baseline 0.25 h: 0.25 h postdose; for Net cGMP (nM) Change from Baseline 0.5 h: 0.5 h postdose; for Net cGMP (nM) Change from Baseline 1 h: 1 h postdose; for Net cGMP (nM) Change from Baseline 2 h: 2 h postdose; for Net cGMP (nM) Change from Baseline 4 h: 4 h postdose; for Net cGMP (nM) Change from Baseline 8 h: 8 h postdose; for Net cGMP (nM) Change from Baseline 12 h: 12 h postdose; for Net cGMP (nM) Change from Baseline 24 h: 24 h postdose; for Net cGMP (nM) Change from Baseline 36 h: 36 h postdose; for Net cGMP (nM) Change from Baseline 48 h: 48 h postdose; for Net cGMP (nM) Change from Baseline 72 h: 72 h postdose; for Net cGMP (nM) Change from Baseline 96 h: 96 h postdose; for Net cGMP (nM) Change from Baseline 120 h: 120 h postdose; for Net cGMP (nM) Change from Baseline 144 h: 144 h postdose; for Net cGMP (nM) Change from Baseline 168 h: 168 h postdose; for net cGMP levels (result in words): monkeys, single SC dose, plasma
Procedure: In vivo monkey studies were conducted as described in detail below. Young adult-to-adult male cynomolgus monkeys were given a single dose subcutaneously (SC). Blood was collected predose and at various pre-determined timepoints throughout the study period. Aliquot of cynomolgus monkey plasma was received for cyclic cGMP (cGMP) measurement and stored at −80° C. prior to use.
Control plasma was made for determining the recovery rate of spike-in cGMP using Enzo cGMP complete ELISA kit (Enzo Life Sciences, Inc, Farmingdale, NY, cat no. ADI-901-164). Briefly, blood from male Sprague Dawley rats (Inotiv, Indianapolis, IN), about 7 months old, was collected in a BD Vacutainer EDTA tube (Becton Dickinson, Franklin Lakes, NJ, cat no. BD-367856) with volume of approximate 4 mL through retro orbital bleeding. Plasma was prepared by spinning the tube in an Eppendorf Refrigerated Centrifuge 5810R (Brinkman Instruments, Inc, Westbury, NY) at 3500 rpm (3000×g) for 10 min at 4° C. Plasma was collected as Positive Control plasma. Cyclic GMP (cGMP standard from Enzo cGMP complete ELISA kit) was added to the positive control plasma at a final concentration of additional 40 nM. Positive Control and Spiked-in Control plasma were aliquoted and stored at −80° C.
The cGMP content was measured using the Enzo cGMP complete ELISA kit following the manufacturer's directions with modifications as described below. The cGMP standards provided in the kit were diluted 1:3 ranging from 50 nM to 0.023 nM in 1× assay buffer that was diluted in water from 2× assay buffer provided in the kit. The cGMP standards ([…]) were transferred to a 96-well polypropylene plate (Thermo Scientific, cat no. 442587).
Plasma samples were thawed from −80° C. and diluted 1:20 in 1× assay buffer in the above plate with a final volume of 150 μL. Assay buffer was added (150 μL) for both a non-specific binding control (in the absence of cGMP antibody) and a maximum binding control (in the absence of competing cGMP) in duplicate wells. Positive Control and Spiked-in Control plasma were diluted 1:20 in 1× assay buffer with a final volume of 150 μL in duplicate wells of the above plate. All diluted plasma was mixed by pipetting up and down several times.
Acetylation reagent mix was prepared by adding 1-part of acetic anhydride into 2-parts of triethylamine provided in the kit and mixing well using Vortex (Scientific Industries, Inc, Bohemia, NY). All controls, standards, and plasma samples were acetylated by adding 15 μL of acetylation reagent mix into the plate, one column at a time, and shaking for 1 min on a Titer Plate Shaker (Lab-Line Instrument, Inc., Melrose Park, IL) at room temperature. The plate was shaken for an additional 1 min following the acetylation of the last column to ensure the reaction was completed.
Acetylated controls, standard and plasma samples were transferred (100 μL) to an ELISA plate (n=1). Then 50 μL of cGMP conjugate were added to each well followed by the addition of 50 μL cGMP antibody to each well except for two non-specific binding wells, in which 50 μL of 1× assay buffer were added. The plate was then sealed and shaken for 2 h at room temperature on the plate shaker. Following this incubation, the plate was washed five times using 200 μL of 1× wash buffer diluted in water from 5× wash buffer provided in the kit. Then, 200 μL of para-Nitrophenylphosphate (pNpp) were added to each well. The plate was sealed with a new plate sealer and shaken in dark for 1 h at room temperature on the plate shaker. Finally, 50 μL of stop solution were added to each well to stop the enzyme reaction. The plate was then read at 405 nm using SpectraMax Plus (Molecular Devices, San Jose, CA).
The mean absorbance at 405 nm (O.D. 405 nm) for the non-specific binding controls was subtracted from the O.D. 405 nm of all samples. The subtracted O.D. 405 nm of all samples were then normalized with the mean subtracted O.D. 405 nm of the maximum binding controls as B/B0%. […]

Compound	Net cGMP (nM) Change from Baseline 0.083 h [nM]	Net cGMP (nM) Change from Baseline 0.25 h [nM]	Net cGMP (nM) Change from Baseline 0.5 h [nM]	Net cGMP (nM) Change from Baseline 1 h [nM]	Net cGMP (nM) Change from Baseline 2 h [nM]	Net cGMP (nM) Change from Baseline 4 h [nM]	Net cGMP (nM) Change from Baseline 8 h [nM]	Net cGMP (nM) Change from Baseline 12 h [nM]	Net cGMP (nM) Change from Baseline 24 h [nM]	Net cGMP (nM) Change from Baseline 36 h [nM]	Net cGMP (nM) Change from Baseline 48 h [nM]	Net cGMP (nM) Change from Baseline 72 h [nM]	Net cGMP (nM) Change from Baseline 96 h [nM]	Net cGMP (nM) Change from Baseline 120 h [nM]	Net cGMP (nM) Change from Baseline 144 h [nM]	Net cGMP (nM) Change from Baseline 168 h [nM]	net cGMP levels (result in words)
CC[C@H](C)[C@@H]1NC(=O)[C@H](CCCNC(=N)N)NC(=O)[C@H](CC(=O)O)NC(=O)[C@H]([C@@H](C)CC)NC(=O)[C@H](CCCNC(=N)N)NC(=O)[C@H](CCCCN)NC(=O)CNC(=O)[C@H](Cc2ccccc2)NC(=O)[C@@H](NC(=O)[C@H](CO)NC(=O)[C@H](CO)NC(=O)[C@H](CCCNC(=N)N)NC(=O)[C@H](CCCNC(=N)N)NC(=O)[C@H](Cc2ccncc2)NC(=O)[C@H](CO)NC(=O)CNC(=O)[C@H](CCCCN)NC(=O)[C@H](CCC(=O)O)NC(=O)[C@H](CCCCN)NC(=O)[C@H](CCC(=O)O)NC(=O)[C@H](CCCCN)NC(=O)[C@H](CCC(=O)O)NC(=O)CC[C@H](NC(=O)CCCCCCCCCCCCCCCCC(=O)O)C(=O)O)CSCSC[C@@H](C(=O)N2CCC[C@H]2C(=O)N[C@@H](CO)C(=O)N[C@@H](Cc2ccccc2)C(=O)N[C@@H](CCCNC(=N)N)C(=O)N[C@@H](Cc2c[nH]cn2)C(=O)NCC(=O)NCC(=O)N[C@@H](CCCCN)C(=O)N[C@@H](CO)C(=O)N[C@@H](CO)C(=O)NCC(=O)N[C@@H](C)C(=O)N2CCC[C@H]2C(=O)N2CCC[C@H]2C(=O)N2CCC[C@H]2C(=O)N[C@@H](CO)C(N)=O)NC(=O)CNC(=O)[C@H](CC(C)C)NC(=O)CNC(=O)[C@H](CO)NC(=O)[C@H](Cc2ccc(O)cc2)NC(=O)[C@H](Cc2c[nH]cn2)NC(=O)CNC1=O [Example 81]	5.6	32.08	37.47	43.98	38.64	31.25	23.05	27.6	22.83	24.25	15.44	12.4	10.48	12.63	9.54	7	increased net cGMP levels
(BFAEN2-βAla)-EKEKEKG-PEG24-EK-βAla-RSS[CFGKRIDRIGHQSGLGC]PSFRHGSPSSGAPPPS-NH2 (EKXRSSCFGKRIDRIGHQSGLGCPSFRHGSPSSGAPPPS; BFAEN2-βAla, PEG24, C-terminal amide; MOD_RES 1 N-terminal modified with (BFAEN2-beta-Ala)-EKEKEKG-PEG24-; wherein BFAEN2 is Bifurcated Fatty Acid Enantiomer 2; SITE 3 X at position 3 is beta-Alanine; MOD_RES 39 Amidation; DISULFID 7..23 Intrachain thioacetal bond) [Example 144]	5.9	18.26	27.08	36.51	35.21	27.1	20.15	13.2	10.23	9.57	7.11	5.22	6.83	3.5	4.48	8.71	increased net cGMP levels
